# Measured values as given in paper PMC12501029, “Discovery of a CNS active GSK3 degrader using orthogonally reactive linker screening” (Nature Communications, 2025).
# Where two headings read alike, the source gives them in different places.
# Test: KH1 (24) intravenous PK/PD study: blood and brain levels, observation
# Type: in vivo, female Balb/c mice
# Protocol: The intravenous formulation for KH1 (24) was prepared by dissolving the compound in DMSO. This was then diluted with PEG400, followed by dropwise addition of sterile water to form a complete solution. The resulting formulation consisted of 5% DMSO, 40% PEG400, and 55% water, and contained KH1 (24) at a concentration of 1.0 mg/mL.
# For the PK/PD study for KH1 (24), three female Balb/c mice were given a bolus intravenous injection at a dose level of 5 mg/kg (5 mL/kg). Animals were observed regularly after dose administration. At 4 h after the administration of KH1 (24), all animals were placed under terminal anaesthesia with isoflurane. Blood was collected via cardiac puncture and the brain and liver were removed. Two aliquots of 10 µL blood were each diluted into 90 µL of Milli-Q ultrapure water. All diluted blood samples were stored at −20 °C prior to bioanalysis. A portion of the brain was stored at −20 °C awaiting bioanalysis, while the remaining brain and liver tissues were snap-frozen in liquid nitrogen and stored at −80 °C awaiting biological investigation. The concentration of KH1 (24) in whole blood and brain tissue was determined via UPLC-MS/MS.
# Blood samples (10 µL) from study mice were diluted 1× with 90 µL of water immediately when the sample was taken. All calibration, quality control, blanks and double blank samples (all 100 µL volume) were mixed (vortexed) with 300 µL of LCMS grade acetonitrile to precipitate proteins.
# For study samples, a volume (30 µL) was mixed (vortexed) with a volume (90 µL) of acetonitrile to precipitate proteins. After protein precipitation, all samples were centrifuged to pellet the proteins. Study samples in Micronics tubes were centrifuged using a Beckman Coutler Allegra C-12R Centrifuge for 10 min at 3750 rpm. All other samples in Eppendorf tubes were centrifuged using a Sigma SciQuip 1–14 centrifuge for 10 min (14,800 rpm/16,163 × g). Supernatant from study samples (80 µL) and calibration samples, QCs, blanks, and double blanks (200 µL) were then transferred to HPLC glass vials containing Milli-Q water (40 µL or 100 µL, respectively), ready for LCMS analysis.
compound,measurement,setting,value
Cn1nc(N2CCC(=O)NC2=O)c2ccc(CN3CCN(Cc4ccc(-c5cn(-c6ccc(-c7cn8nccc(C(=O)Nc9cnccc9N9CCOCC9)c8n7)cc6)nn5)nc4)CC3)cc21 [compound 24],adverse signs in vivo,5 mg/kg IV study and the lower IV/PO study,no adverse signs
same,Kp at 4 h,"female, Balb/c, mouse, brain / whole blood, intravenous, 5 mg/kg i.v., 4 hours, read-out: Brain:Blood Ratio",0.1
same,concentration at 4 h,"female, Balb/c, mouse, brain, intravenous, 5 mg/kg i.v., 4 hours, read-out: Mean Brain Concentration",68 nM
same,concentration at 4 h,"female, Balb/c, mouse, whole blood, intravenous, 5 mg/kg i.v., 4 hours, read-out: Mean Blood Concentration",696 nM
